These results are taken from patent US8354265B2, “Chemicals promoting the growth of N-acylhomoserine lactone-degrading bacteria” (Centre National de la Recherche Scientifique, priority 2007, dated 2013).

The subject of assay [1] is bacterial isolates from untreated and GCL-treated batches. Description: Assimilation of GCL as sole carbon source versus NAHL inactivation by isolates (FIG. 10). It counts as cell-based. Conditions: untreated and GCL-treated (0.1 and 0.4 mL/L) batches; D14 and D28. As to the method: Each disk represents 90 isolates from untreated or GCL-treated (0.1 and 0.4 mL/L) batches 14 days (D14) and 28 days (D28) after the beginning of the treatment.
Bacterial isolates grown in 96-microwell plates were individually tested from production of NAHL with the A. tumefaciens biosensor NT1 (pZNLR4) and the inactivation of the C6-HSL signal, as described previously (d'Angelo-Picard et al. 2004).
Results were cross-examined with respect to the ability of each strain to inactivate (or not) NAHL signal.

The test system of assay [2] is bacterial populations of potato roots. Briefly: DGGE analysis of bacterial populations associated with roots. It is filed as in vivo, Solanum tuberosum. The note with it: D14 and D28; 0.1 and 0.4 mL/L, most visible at 0.4 mL/L. As to the method: FIG. 11: DGGE analyses. […] Numbered bands on pictures were analyzed by sequencing. For each sequence or group of sequences, one of the closest rrs sequences was indicated. It is identified by its Genbank number, the similarity indice (SI) (calculated at Ribosomal Database Project http://rdp.cme.msu.edu/), and the name and taxonomical position of the bacteria of origin (Bact, Bacteria; BC, Bacteroidetes/Chlorobi group; Firm, Firmicutes; α,α-proteobacteria; β,β-proteobacteria; and γ,γ-proteobacteria).
The structure of the bacterial population associated with roots system (ca. 10 g) was analyzed by DGGE of PCR-amplified rrs region (position 341-534 of E. coli sequence). Two samples were analyzed from each batch. The DGGE analysis was performed by Microbial Insights (Rockford, Tenn., USA), as previously described (d'Angelo-Picard et al., 2004). Band positions in each line were converted to 0 (absence) and 1 (presence) value and assembled in a matrix. Profile similarity was calculated with the Dice algorithm using DistAFLP software (http://pbil.univ-lyon1.fr/ADE-4/microb). Sequence identification of selected bands was performed using the sequence match facility of the Ribosomal Database Project (http://rdp.cme.msu.edu/), according to NCBI taxonomy (http://www.ncbi.nlm.nih.gov/Taxonomy/). […]

Assay [3] concerns bacterial consortia from unplanted soil. Briefly: C6-HSL inactivation by bacterial consortia enriched from unplanted soil on the compound as sole carbon source. The note with it: soil and rhizospheric samples; among 25 assayed molecules. It is filed as cell-based.
In assay [4] the test system is NAHL-degrading rhizobacteria. Briefly: Diversity of NAHL-degrading rhizobacteria after 6CL and GCL treatments, rrs sequencing (Table 2). It counts as in vivo, Solanum tuberosum. The note with it: isolates of treated batches.
For assay [5], the system named is NAHL-degrading rhizobacteria. The description is as above. It is filed as in vivo, Solanum tuberosum. As to the method:
The non sterile batches (40×60×8 cm) contained 13 L of the nutritive solution Hydrobloom (Cellmax, UK) with Nitrogen at 0.80 g/L, Phosphore at 0.56 g/L and Potassium at 1.48 g/L as major components. The solution was diluted from a concentrated stock solution (×250) with non sterile water from the public water system. One hundred plants of Solanum tuberosum var. Allians, which were recovered from cultures performed under sterile conditions, were placed into holes (3 cm space to each other) of batch covers. Planted batches were placed in the greenhouse (Comité Nord Plants de Pomme de Terre, Bretteville-du-Grand-Caux) under natural light at 10-15° C. (night) and 25-30° C. (day). […] An untreated batch was used as a control. One gram of roots (fresh weight) was resuspended in 10 mL of sterile MgSO4 10 mM, diluted and spread on TSA and King B plates to isolate total cultivable bacteria and fluorescent Pseudomonas, respectively. Three samples were analyzed from each batch at each time D0, D14 and D28; from each sample, thirty isolates from TSA plates and thirty fluorescent isolates from King B plates were individually tested from production and inactivation of NAHL signal.
The 5′-end of the rrs gene was amplified with primers pA (5′-[…]) (SEQ ID NO:1) and 518r (5′-[…]) (SEQ ID NO:2), and sequenced with pA primer by GenomeExpress (Meylan, France). At least 400 bp were submitted to the NCBI database. Although some sequence comparisons authorized identification of isolates at the species level, only the genus level was retained in this study for homogeneity.
The isolates were identified by rrs-sequencing (Table 2). At D0, most of the NAHL-degrading isolates were identified as Delftia. However, at D14 and D28, the Agrobacterium isolates dominated in untreated batches, while they were not detected in the treated batches. In those, the more frequently counted bacteria were Delftia and Rhodococcus.

Consider `CCC1CCC(=O)O1` (stereo not shown) [GCL, gamma-caprolactone], for which the “occurrence of bacteria both assimilating GCL and inactivating NAHL” value in assay [1] was “only detected in the treated batches”. The “change of bacterial populations by DGGE” value in assay [2] is listed as “drastic remodelling of bacterial populations”. The “growth stimulation of NAHL-degrading bacteria after enrichment procedures” value in assay [3] is given as “stimulated the growth of NAHL-degrading bacteria”. Besides, the “growth of Delftia and Rhodococcus isolates on the compound as a sole carbon source” value in assay [4] is listed as “grew on GCL as a sole carbon source”. In assay [5] (D14 and D28, 0.1 mL/L), the “rrs-identified NAHL-degraders: Delftia” value came out at 16, the “rrs-identified NAHL-degraders: Others” value is 2, the “rrs-identified NAHL-degraders: Pseudomonas” value is recorded as 1 and the “rrs-identified NAHL-degraders: Rhizobium” value was 1. The “rrs-identified NAHL-degraders: Rhodococcus” value in assay [5] (D14 and D28, 0.1 mL/L) was 60. In addition, in assay [5] (D14 and D28, 0.4 mL/L), the “rrs-identified NAHL-degraders: Delftia” value amounted to 9, the “rrs-identified NAHL-degraders: Pseudomonas” value worked out at 1 and the “rrs-identified NAHL-degraders: Rhodococcus” value is 96. Further, the “percentage of A. tumefaciens isolates among the NAHL-degrading rhizobacteria” value in assay [5] (after GCL-treatments) is “decrease”.
